The conditions of data set [1]: cited from earlier work.
Data set [2] in a line: characteristic curvature (Cc), HLD framework. Conditions: obtained following procedure of Nouraei et al. (WO 2022/140843). In kind it is physicochemical.

The structures appear in SMILES notation.

For `C=CCc1ccc(O)c(OC)c1` [Eugenol, eugenol], the water solubility in data set [1] was 0.14 wt %. With `C=C(C)[C@@H]1CCC(C)=C[C@H]1c1c(O)cc(CCCCC)cc1O` [CBD, cannabidiol], the water solubility in data set [1] is on record as 0.0013 wt %. As for `CCCCCc1cc(O)c2c(c1)OC(C)(C)[C@@H]1CCC(C)=C[C@@H]21` [THC, tetrahydrocannabinol], the “characteristic curvature (Cc)” value in data set [2] is given as “+2.7”.

The values above are taken from patent US20260077277A1, “DILUTABLE COMPOSITIONS AND PROCESSES FOR EXTRACTING AND REFINING POORLY WATER-SOLUBLE POLAR OILS FROM BIOMASS” (priority 2022, published 2026).
